Laboratory results taken from ChEMBL document CHEMBL1201862, “PubChem BioAssay data set” (2004).
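Briefly, cells in 96-well plates were exposed to five compound concentrations for 48 h, and endpoints were estimated by linear interpolation. At the GI50, growth is halved.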 The source made the active and inactive calls. Cut-off read from the data, not from the text of the source: active = GI50 up to about 1.1 µM and inactive = higher.

Legend:
Assay in all cases: NCI-60 cell line screen, 48 h
OVCAR-8 = tested on: OVCAR-8
MDA-N = tested on: MDA-N
NCI-H226 = tested on: NCI-H226
SK-MEL-2 = tested on: SK-MEL-2
MOLT-4 = tested on: MOLT-4
COLO 205 = tested on: COLO 205
TK-10 = tested on: TK-10
LOX IMVI = tested on: LOX IMVI
OVCAR-4 = tested on: OVCAR-4
EKVX = tested on: EKVX
PC-3 = tested on: PC-3
K562 = tested on: K562
SW-620 = tested on: SW-620
SF-539 = tested on: SF-539
UO-31 = tested on: UO-31
OVCAR-3 = tested on: OVCAR-3
KM12 = tested on: KM12
NCI-H522 = tested on: NCI-H522
MDA-MB-231 = tested on: MDA-MB-231
HCC 2998 = tested on: HCC 2998

Row | SMILES | GI50 (OVCAR-8) | GI50 (MDA-N) | GI50 (NCI-H226) | GI50 (SK-MEL-2) | GI50 (MOLT-4) | GI50 (COLO 205) | GI50 (TK-10) | GI50 (LOX IMVI) | GI50 (OVCAR-4) | GI50 (EKVX) | GI50 (PC-3) | GI50 (K562) | GI50 (SW-620) | GI50 (SF-539) | GI50 (UO-31) | GI50 (OVCAR-3) | GI50 (KM12) | GI50 (NCI-H522) | GI50 (MDA-MB-231) | GI50 (HCC 2998)
1 | c1ccc([P+](CCCCCCCC[P+](c2ccccc2)(c2ccccc2)c2ccccc2)(c2ccccc2)c2ccccc2)cc1 | 4.4 µM (inactive) | 6.89 µM (inactive) | 3.61 µM (inactive) | 5.69 µM (inactive) | 10.2 µM (inactive) | 0.91 µM (active) | 18 µM (inactive) | 4.2 µM (inactive) | 6.04 µM (inactive) | > 61.5 µM (inactive) | 1.19 µM (inactive) | 3.6 µM (inactive) | 6.81 µM (inactive) | 2.37 µM (inactive) | > 100 µM (inactive) | 3.83 µM (inactive) | 1.52 µM (inactive) | 1.8 µM (inactive) | 7.13 µM (inactive) | 21.3 µM (inactive)
2 | COc1cccc(Nc2nc(NNC(=O)Cc3ccccc3)nc(NNC(=O)c3ccncc3)n2)c1 | > 10 µM (inactive) | > 10 µM (inactive) | > 100 µM (inactive) | > 100 µM (inactive) | 78.7 µM (inactive) | > 10 µM (inactive) | > 10 µM (inactive) | 13.4 µM (inactive) | > 10 µM (inactive) | > 10 µM (inactive) | 53.1 µM (inactive) | > 10 µM (inactive) | 78.2 µM (inactive) | > 10 µM (inactive) | 6.32 µM (inactive) | > 100 µM (inactive) | 71.3 µM (inactive) | > 100 µM (inactive) | 8.55 µM (inactive) | > 10 µM (inactive)
3 | CCOC(=O)c1c(N2CCCC2)[nH]c(=O)c(C(c2ccc(OC)cc2)c2c(O)c(C(=O)OCC)c(N3CCCC3)[nH]c2=O)c1O | 86.1 µM (inactive) | > 100 µM (inactive) | > 100 µM (inactive) | 5 µM (inactive) | > 100 µM (inactive) | > 100 µM (inactive) | 42.8 µM (inactive) | > 100 µM (inactive) | > 100 µM (inactive) | 44.8 µM (inactive) | > 100 µM (inactive) | > 100 µM (inactive) | > 100 µM (inactive) | > 100 µM (inactive) | > 100 µM (inactive) | > 100 µM (inactive) | > 100 µM (inactive) | > 100 µM (inactive) | 20.8 µM (inactive) | > 100 µM (inactive)
4 | CC(=O)Nn1c(Cc2ccc(Cl)cc2)nn(C)c1=O | > 100 µM (inactive) | > 100 µM (inactive) | > 100 µM (inactive) | > 100 µM (inactive) | > 100 µM (inactive) | > 100 µM (inactive) | > 100 µM (inactive) | > 100 µM (inactive) | > 100 µM (inactive) | > 100 µM (inactive) | > 100 µM (inactive) | > 100 µM (inactive) | > 100 µM (inactive) | > 100 µM (inactive) | > 100 µM (inactive) | > 100 µM (inactive) | > 100 µM (inactive) | > 100 µM (inactive) | > 100 µM (inactive) | > 100 µM (inactive)
5 | NS(=O)(=O)c1ccc(NC(=S)N/C=C2\C(=O)Oc3ccccc3C2=O)cc1 | 16.2 µM (inactive) | 34.4 µM (inactive) | 12.6 µM (inactive) | 15.3 µM (inactive) | 53 µM (inactive) | 40.5 µM (inactive) | 28.2 µM (inactive) | 33.6 µM (inactive) | 43 µM (inactive) | 34.1 µM (inactive) | 36.1 µM (inactive) | 35.1 µM (inactive) | 40.1 µM (inactive) | 44 µM (inactive) | 17.6 µM (inactive) | 27.2 µM (inactive) | 16.5 µM (inactive) | 23.2 µM (inactive) | 16 µM (inactive) | 34.8 µM (inactive)
6 | CC(C)=CCC/C(C)=C/COc1c2ccoc2cc2oc(=O)ccc12 [BERGAMOTTIN] | 43.7 µM (inactive) | 34.7 µM (inactive) | 30.1 µM (inactive) | 16 µM (inactive) | 15.4 µM (inactive) | 17.5 µM (inactive) | 42.2 µM (inactive) | 21 µM (inactive) | 41.4 µM (inactive) | 22.2 µM (inactive) | 29.9 µM (inactive) | 22.4 µM (inactive) | 37.8 µM (inactive) | 37.2 µM (inactive) | 21.5 µM (inactive) | 25.4 µM (inactive) | 32.7 µM (inactive) | 19 µM (inactive) | 24.4 µM (inactive) | 28.2 µM (inactive)
7 | C=CCSC1=N/C(=C\c2ccco2)C(=O)N1CC=C | > 100 µM (inactive) | 41.8 µM (inactive) | 34.4 µM (inactive) | > 100 µM (inactive) | 25.9 µM (inactive) | 83.6 µM (inactive) | > 100 µM (inactive) | 69.3 µM (inactive) | 38 µM (inactive) | 40.3 µM (inactive) | 46.7 µM (inactive) | 35.2 µM (inactive) | > 100 µM (inactive) | > 100 µM (inactive) | 53 µM (inactive) | 95.3 µM (inactive) | 64.4 µM (inactive) | 43.9 µM (inactive) | 98.9 µM (inactive) | > 100 µM (inactive)
8 | O=C(CC(=O)c1ccncc1)c1ccccc1 | 59.6 µM (inactive) | > 71.1 µM (inactive) | > 100 µM (inactive) | > 81.1 µM (inactive) | 38.1 µM (inactive) | > 100 µM (inactive) | > 94.8 µM (inactive) | 31.8 µM (inactive) | > 100 µM (inactive) | > 64.3 µM (inactive) | > 77.8 µM (inactive) | 45.1 µM (inactive) | 73.1 µM (inactive) | 63.5 µM (inactive) | > 74.5 µM (inactive) | > 85.3 µM (inactive) | > 100 µM (inactive) | 67.3 µM (inactive) | > 100 µM (inactive) | > 67.1 µM (inactive)
9 | COc1ccc(N2C(=O)/C(=C/c3ccc(N(CCC#N)CCC#N)cc3C)N=C2c2cc([N+](=O)[O-])ccc2Cl)cc1 | 5.33 µM (inactive) | 1.56 µM (inactive) | 17 µM (inactive) | 6.15 µM (inactive) | 4.73 µM (inactive) | 4.34 µM (inactive) | 21.6 µM (inactive) | 6.43 µM (inactive) | > 46.5 µM (inactive) | 14.5 µM (inactive) | 4.7 µM (inactive) | 2.62 µM (inactive) | 4.55 µM (inactive) | 3.37 µM (inactive) | 5.19 µM (inactive) | 3.35 µM (inactive) | 6.52 µM (inactive) | 2.74 µM (inactive) | 12.6 µM (inactive) | 4.68 µM (inactive)
10 | CC(=O)O[C@H]1CC[C@@]2(C)C(=CC[C@@H]3[C@@H]2CC[C@]2(C)c4nc(N)c(C#N)cc4C[C@@H]32)C1 | 30.3 µM (inactive) | 29 µM (inactive) | > 100 µM (inactive) | 35.9 µM (inactive) | 11.7 µM (inactive) | 20.2 µM (inactive) | 27.2 µM (inactive) | 32.2 µM (inactive) | 19.9 µM (inactive) | 27.9 µM (inactive) | 42.5 µM (inactive) | 15.8 µM (inactive) | 43.4 µM (inactive) | 13.7 µM (inactive) | > 100 µM (inactive) | 1.75 µM (inactive) | 55.1 µM (inactive) | 12.6 µM (inactive) | 44.2 µM (inactive) | > 55.3 µM (inactive)
11 | CCOC(=O)c1ccc(NC2Oc3cc4c(cc3C(c3cc(OC)c(OC)c(OC)c3)C2C)OCO4)cc1 (stereo not given) | 0.935 µM (active) | 0.186 µM (active) | 1.51 µM (inactive) | 0.675 µM (active) | 0.41 µM (active) | 0.236 µM (active) | 15.6 µM (inactive) | 0.61 µM (active) | 0.649 µM (active) | 4.24 µM (inactive) | 0.376 µM (active) | 0.329 µM (active) | 0.339 µM (active) | 0.271 µM (active) | 0.351 µM (active) | 0.352 µM (active) | 0.396 µM (active) | 0.416 µM (active) | 0.516 µM (active) | 2.13 µM (inactive)
12 | COC(=O)c1c(C)cccc1C1CN=NC12Cc1c(C)cccc1C2=O (stereo not given) | 44.7 µM (inactive) | > 100 µM (inactive) | > 100 µM (inactive) | 99.3 µM (inactive) | 37.4 µM (inactive) | 55.5 µM (inactive) | > 100 µM (inactive) | 50.9 µM (inactive) | 35.7 µM (inactive) | 24.8 µM (inactive) | 37.2 µM (inactive) | 37.2 µM (inactive) | > 100 µM (inactive) | > 100 µM (inactive) | 24 µM (inactive) | 45.2 µM (inactive) | 46.6 µM (inactive) | 24.9 µM (inactive) | 82.8 µM (inactive) | 57.8 µM (inactive)
13 | CC(C)CCNC(=O)c1ccc(CNC(=O)/C=C/c2ccc3c(c2)-c2ccccc2C3)cc1 | 27.7 µM (inactive) | 62.8 µM (inactive) | 60 µM (inactive) | > 100 µM (inactive) | 36.2 µM (inactive) | 88.1 µM (inactive) | 40 µM (inactive) | 50.6 µM (inactive) | 22.9 µM (inactive) | > 100 µM (inactive) | 42.9 µM (inactive) | 64.3 µM (inactive) | 44.8 µM (inactive) | > 100 µM (inactive) | 42 µM (inactive) | 23.4 µM (inactive) | 33.3 µM (inactive) | 22.6 µM (inactive) | 34.5 µM (inactive) | 71.3 µM (inactive)
14 | COc1cc2cc(C(=O)N3C[C@H](CCl)c4c3cc(O)c3ccccc43)[nH]c2c(OC)c1OC | 0.0942 µM (active) | 1.29 µM (inactive) | 0.12 µM (active) | 0.203 µM (active) | 0.0381 µM (active) | 1.32 µM (inactive) | 0.277 µM (active) | 0.101 µM (active) | 0.261 µM (active) | 0.31 µM (active) | 0.267 µM (active) | 0.25 µM (active) | 0.174 µM (active) | 0.055 µM (active) | 0.13 µM (active) | 0.279 µM (active) | 0.213 µM (active) | 0.108 µM (active) | 1.69 µM (inactive) | 0.16 µM (active)
